# Data taken from patent US8853258B2, “C-linked hydroxamic acid derivatives useful as antibacterial agents” (Pfizer Inc., priority 2009, dated 2014).
# Like-named read-outs stand apart in the source and are kept apart here.
# Experiments:
# Format in all cases: cell-based
# [1] = system: Acinetobacter baumanii/haemolyticus: Multidrug-resistant clinical isolate (AB-3167); assay: MIC determination (CLSI), AB-3167; conditions: for AB-3167 MIC: Acinetobacter baumanii/haemolyticus multidrug-resistant clinical isolate AB-3167; for MIC: Acinetobacter baumannii
# Protocol: (§1) The in vitro antibacterial activity of compounds described in the Examples was evaluated by minimum inhibitory concentration (MIC) testing according to Clinical and Laboratory Standards Institute (CLSI, formerly NCCLS) guidelines. See: Clinical and Laboratory Standards Institute. Methods for Dilution Antimicrobial Susceptibility Tests for Bacteria that Grow Aerobically; Approved Standard-Seventh Edition. CLSI document M7-A7 [ISBN 1-56238-587-9]. Clinical and Laboratory Standards Institute, 940 West Valley Road, Suite 1400, Wayne, Pa. 19087-1898 USA, 2006; also Clinical and Laboratory Standards Institute. Performance Standards for Antimicrobial Susceptibility Testing; Eighteenth Informational Supplement. CLSI document M100-S18 [ISBN1-56238-653-0]. Clinical and Laboratory Standards Institute.
# (§2) The following bacterial strains were used in these MIC determinations:
# 2) Acinetobacter baumanii/haemolyticus: Multidrug-resistant clinical isolate labeled as AB-3167 in Tables 1, 2 and 3;
# [2] = system: Escherichia coli EC-1: VOGEL, mouse virulent; assay: MIC determination (CLSI), EC-1; conditions: for EC-1 MIC: Escherichia coli EC-1 VOGEL, mouse virulent; for MIC: Escherichia coli
# Protocol: as §1, §2
# 3) Escherichia coli EC-1: VOGEL, mouse virulent labeled as EC-1 in Tables 1, 2 and 3;
# [3] = system: Klebsiella pneumoniae: Ciprofloxacin-resistant isolate, ESBL, clinical isolate (KP-3700); assay: MIC determination (CLSI), KP-3700
# Protocol: as §1, §2
# 4) Klebsiella pneumoniae: Ciprofloxacin-resistant isolate, expresses extended-spectrum beta-lactamases (ESBL), clinical isolate, labeled as KP-3700 in Tables 1, 2, and 3.
# [4] = system: Pseudomonas aeruginosa UI-18: Wild-type (PA-7); assay: MIC determination (CLSI), PA-7; conditions: for PA-7 MIC: Pseudomonas aeruginosa UI-18 wild-type PA-7; for MIC: Pseudomonas aeruginosa
# Protocol: as §1, §2
# 1) Pseudomonas aeruginosa UI-18: Wild-type, labeled as PA-7 in Tables 1, 2 and 3;
# [5] = Table 1, MIC, read-out: AB-3167 (MIC)
# [6] = Table 1, MIC, read-out: PA-7 (MIC)
Structure (SMILES),AB-3167 MIC [1],EC-1 MIC [2],KP-3700 MIC [3],PA-7 MIC [4],"MIC [1, 5]",MIC ([2]; read-out: EC-1: (MIC)),"MIC [4, 6]","MIC ([1]; Table 3, read-out: AB-3167 MIC)",MIC ([2]; read-out: EC-1 MIC),"MIC ([4]; Table 3, read-out: PA-7 MIC)",KP-3700 MIC ([3]; Klebsiella pneumoniae ciprofloxacin-resistant ESBL clinical isolate KP-3700)
Cc1ccccc1-c1ccc(CCC(C)(C(=O)NO)S(C)(=O)=O)cc1 (racemic) [Example 58],32 µg/mL,8 µg/mL,32 µg/mL,4 µg/mL,,,,,,,
"CC(CCc1ccc(OC2CCCC2)cc1)(C(=O)NO)S(C)(=O)=O (racemic) [Example 15, (+/−)-4-[4-(Cyclopentyloxy)phenyl]-N-hydroxy-2-methyl-2-(methylsulfonyl)butanamide]",,,≧64 mg/L,,32 µg/mL,16 µg/mL,4 µg/mL,,,,
"Cc1ccc(-c2noc(COc3ccc(CCC(C)(C(=O)NO)S(C)(=O)=O)cc3)n2)cc1 (stereo not drawn) [Example 269, N-hydroxy-2-methyl-4-(4-{[3-(4-methylphenyl)-1,2,4-oxadiazol-5-yl]methoxy}phenyl)-2-(methylsulfonyl)butanamide]",,,≧64 mg/L,,,,,≥ 64 µg/mL,4 µg/mL,≥ 64 µg/mL,
CC(C)(O)Cc1ccc(-c2ccc(CCC(C)(C(=O)NO)S(C)(=O)=O)cc2)cc1 (stereo not drawn) [Example 146],≧64 mg/L,8 µg/mL,32 µg/mL,8 µg/mL,,,,,,,
CC(CCc1ccc(-c2ccc3c(c2)CCO3)cc1)(C(=O)NO)S(C)(=O)=O (racemic) [Example 74],16 µg/mL,1 µg/mL,4 µg/mL,1 µg/mL,,,,,,,
CSc1ccc(-c2ccc(CCC(C)(C(=O)NO)S(C)(=O)=O)cc2)cc1 (stereo not drawn) [Example 40],16 µg/mL,0.5 µg/mL,2 µg/mL,2 µg/mL,,,,,,,
Cc1cc(OCCO)ccc1-c1ccc(CCC(C)(C(=O)NO)S(C)(=O)=O)cc1 (stereo not drawn) [Example 151],≧64 mg/L,8 µg/mL,32 µg/mL,4 µg/mL,,,,,,,
"CCOc1ccc(CCC(C)(C(=O)NO)S(C)(=O)=O)cc1 (stereo not drawn) [Example 235, 4-(4-ethoxyphenyl)-N-hydroxy-2-methyl-2-(methylsulfonyl)butanamide]",,,≧64 mg/L,,,,,≥ 64 µg/mL,32 µg/mL,16 µg/mL,
CC(CCc1ccc(-c2ccc(C#N)cc2)cn1)(C(=O)NO)S(C)(=O)=O (stereo not drawn) [Example 163],≧64 mg/L,32 µg/mL,32 µg/mL,8 µg/mL,,,,,,,
"CC(CCc1ccc(OCC2CC2)cc1)(C(=O)NO)S(C)(=O)=O (stereo not drawn) [Example 246, 4-[4-(cyclopropylmethoxy)phenyl]-N-hydroxy-2-methyl-2-(methylsulfonyl)butanamide]",,,≧64 mg/L,,,,,≥ 64 µg/mL,32 µg/mL,≥ 64 µg/mL,
"CC(CCc1ccc(OCc2ccc3ccccc3n2)cc1)(C(=O)NO)S(C)(=O)=O (stereo not drawn) [Example 279, N-hydroxy-2-methyl-2-(methylsulfonyl)-4-[4-(quinolin-2-ylmethoxy)phenyl]butanamide]",,,≧64 mg/L,,,,,≥ 64 µg/mL,16 µg/mL,≥ 64 µg/mL,
"CS(=O)(=O)C(CCc1ccc(-c2ccc(F)cc2)cc1)C(=O)NO (stereo not drawn) [Example 24, 4-(4′-Fluorobiphenyl-4-yl)-N-hydroxy-2-(methylsulfonyl)butanamide]",,,32 µg/mL,,32 µg/mL,32 µg/mL,1 µg/mL,,,,
COc1cc(-c2ccc(CCC(C)(C(=O)NO)S(C)(=O)=O)cc2)ccc1O (stereo not drawn) [Example 139],≧64 mg/L,16 µg/mL,≧64 mg/L,16 µg/mL,,,,,,,
CC(CCc1ccc(-c2ccc(C#N)s2)cc1)(C(=O)NO)S(C)(=O)=O (racemic) [Example 82],8 µg/mL,0.5 µg/mL,2 µg/mL,0.5 µg/mL,,,,,,,
CNC(=O)c1ccc(-c2ccc(CCC(C)(C(=O)NO)S(C)(=O)=O)cc2)cc1 (racemic) [Example 85],≧64 mg/L,32 µg/mL,≧64 mg/L,16 µg/mL,,,,,,,
"CC(CCc1ccc(OCc2ccncc2)cc1)(C(=O)NO)S(C)(=O)=O (stereo not drawn) [Example 316, N-hydroxy-2-methyl-2-(methylsulfonyl)-4-[4-(pyridin-4-ylmethoxy)phenyl]butanamide]",,,≧64 mg/L,,,,,16 µg/mL,32 µg/mL,8 µg/mL,
CNS(=O)(=O)c1ccc(-c2ccc(CCC(C)(C(=O)NO)S(C)(=O)=O)cc2)cc1 (racemic) [Example 68],≧64 mg/L,32 µg/mL,32 µg/mL,4 µg/mL,,,,,,,
CC(CCc1ccc(-c2ccccc2O)nc1)(C(=O)NO)S(C)(=O)=O (stereo not drawn) [Example 143],≧64 mg/L,4 µg/mL,32 µg/mL,4 µg/mL,,,,,,,
CC(CCc1ccc(-c2cccnc2)cc1)(C(=O)NO)S(C)(=O)=O (racemic) [Example 61],≧64 mg/L,≧64 mg/L,≧64 mg/L,16 µg/mL,,,,,,,
CC(C)(O)c1ccccc1-c1ccc(CCC(C)(C(=O)NO)S(C)(=O)=O)cc1 (stereo not drawn) [Example 153],≧64 mg/L,≧64 mg/L,≧64 mg/L,32 µg/mL,,,,,,,
CC(CCc1ccc(-c2ccc(OCCO)c(C#N)c2)cc1)(C(=O)NO)S(C)(=O)=O (stereo not drawn) [Example 148],≧64 mg/L,16 µg/mL,≧64 mg/L,16 µg/mL,,,,,,,
"CC(CCc1ccc(OCCc2ccccc2)cc1)(C(=O)NO)S(C)(=O)=O (stereo not drawn) [Example 271, N-hydroxy-2-methyl-2-(methylsulfonyl)-4-[4-(2-phenylethoxy)phenyl]butanamide]",,,≧64 mg/L,,,,,32 µg/mL,16 µg/mL,≥ 64 µg/mL,
"CC(CCc1ccc(-c2ccccc2O)cc1)(C(=O)NO)S(C)(=O)=O (stereo not drawn) [Example 8, N-Hydroxy-4-(2′-hydroxybiphenyl-4-yl)-2-methyl-2-(methylsulfonyl)butanamide]",,,≧64 mg/L,,≥ 64 µg/mL,≥ 64 µg/mL,8 µg/mL,,,,
CC(CCc1ccc(-c2ccc(O)cc2F)cc1)(C(=O)NO)S(C)(=O)=O (stereo not drawn) [Example 149],≧64 mg/L,2 µg/mL,8 µg/mL,1 µg/mL,,,,,,,
"CC(CCc1ccc(OCc2cc(C#N)ccc2F)cc1)(C(=O)NO)S(C)(=O)=O (stereo not drawn) [Example 275, 4-{4-[(5-cyano-2-fluorobenzyl)oxy]phenyl}-N-hydroxy-2-methyl-2-(methylsulfonyl)butanamide]",,,≧64 mg/L,,,,,≥ 64 µg/mL,≥ 64 µg/mL,32 µg/mL,
CC(CCc1ccc(-c2cccc(O)c2F)cc1)(C(=O)NO)S(C)(=O)=O (stereo not drawn) [Example 154],≧64 mg/L,4 µg/mL,,1 µg/mL,,,,,,,8 µg/mL
CC(CCc1ccc(-c2cncnc2)cc1)(C(=O)NO)S(C)(=O)=O (racemic) [Example 80],≧64 mg/L,8 µg/mL,32 µg/mL,8 µg/mL,,,,,,,
